For this assay, the target named is antibody. Kind of assay: Cross-reactivity of the antibody by ELISA (competitive binding with enzyme conjugate). On the set-up: species or system New Zealand white rabbits. To be noted: concentration giving 50% reduction of absorbance caused by enzyme conjugate binding to a known amount of antibody. As to the method: The antigen produced in example 2 is dissolved into 0.1M sodium phosphate buffer solution containing 0.14% sodium chloride at pH 7.6 (PBS 7.6). One milliliter of the antigen solution, 0.5 mg antigen per milliliter, is mixed with one milliliter of Freund's complete adjuvant and emulsified. The emulsion is injected peri-lymph nodal into New Zealand white rabbits at 0.5 mg/rabbit. Three weeks after the initial immunization, 0.25 mg of the antigen in 1 mL of PBS 7.6 is emulsified with 1 mL of Freund's incomplete adjuvant and injected into the rabbits intramuscularly as boosters. The booster injections are introduced every three weeks into the rabbits. After the second boost, blood samples are collected through the ear vein ten days post injection. Serum containing the antibody is harvested from the blood samples and stored.
The antibody and enzyme conjugate prepared above are used to establish an ELISA method for the determination of the presence and concentration of imidazolinones in soil, water or plant samples. A Costar 96 well polystyrene EIA treated flat bottom microwell plate is coated with a constant amount of the antibody in a 0.1N Na2 CO3 buffer. The antibody coated wells are incubated overnight at 4° C., washed with PBS 7.6 buffer containing 0.01% TWEEN® 20, blocked with 5% milk (nonfat dry milk) in PBS 7.6 and incubated 30 minutes at room temperature. Standard solutions having concentrations of imazaquin from 0 to 25 ng per mL are added to the blocked wells followed by the addition of the aforementioned enzyme conjugate.
The wells are incubated for thirty minutes, washed and then a freshly prepared tetramethylbenzidine/hydrogen peroxide substrate solution is added to each well. After ten minutes, readings are taken for each well at 650 nm using a microwell reader.
The cross reactivity of the antibody with imidazolinone compounds, imidazolinone metabolites and other commonly found agrochemicals is determined using the procedure of example 5. The concentration of a compound which produces a 50% reduction of absorbance caused by the enzyme conjugate binding to a known amount of antibody is defined as the I50 value (50% inhibition concentration). The I50 values from the cross-reactivity studies are in Table III.
Consider `CC(C)C(C)(NC(=O)c1cc2ccccc2nc1C(=O)O)C(N)=O` (centres unmarked) [3-[(1-Carbamoyl-1,2-dimethylpropyl)carbamoyl]quinaldic acid], for which the “I50 (50% inhibition concentration)” value is given as > 5,000 ng/mL.
Consider “mixture of methyl 6-(4-isopropyl-4-methyl-5-oxo-2-imidazolin-2-yl)-m-toluate and methyl 2-(4-isopropyl-4-methyl-5-oxo-2-imidazolin-2-yl)-p-toluate [Imazamethabenz]”, for which the “I50 (50% inhibition concentration)” value is given as 33.2 ng/mL.
The same measure for `C[n+]1ccc(-c2cc[n+](C)cc2)cc1` [Paraquat]: > 100,000 ng/mL.
For `CCNc1nc(Cl)nc(NC(C)C)n1` [Atrazine] the value was > 100,000 ng/mL.
The same measure for `CCC(CC)Nc1c([N+](=O)[O-])cc(C)c(C)c1[N+](=O)[O-]` [Pendimethalin]: > 100,000 ng/mL; for `CC(C)C(C)(NC(=O)c1nc2ccccc2cc1C(=O)O)C(N)=O` (centres unmarked) [2-[(1-Carbamoyl-1,2-dimethylpropyl)carbamoyl]-3-quinolinecarboxylic acid]: > 5,000 ng/mL.
Regarding `CC(C)C1(C)N=C(c2nc3ccccc3cc2C(=O)O)NC1=O` (centres unmarked) [Imazaquin, 2-(4-isopropyl-4-methyl-5-oxo-2-imidazolin-2-yl)-3-quinolinecarboxylic acid], the “I50 (50% inhibition concentration)” value is reported as 10.7 ng/mL.
With `COc1nc(C)nc(NC(=O)NS(=O)(=O)c2ccccc2Cl)n1` [Chlorsulfuron], the “I50 (50% inhibition concentration)” value is given as > 100,000 ng/mL.
The same measure for `CCCCOCN(C(=O)CCl)c1c(CC)cccc1CC` [Butachlor]: > 100,000 ng/mL.
With `CC(C)C(C)(C(N)=O)N1C(=O)c2cc3ccccc3nc2C1=O` (stereo not drawn) [1,3-Dihydro-α-isopropyl-α-methyl-1,3-dioxo-2 --H-pyrrolo[3,4- -b]quinoline-2-acetamide], the “I50 (50% inhibition concentration)” value is reported as > 5,000 ng/mL.
The same measure for `CCc1cnc(C2=NC(C)(C(C)C)C(=O)N2)c(C(=O)O)c1` (centres unmarked) [Imazethapyr, 5-ethyl-2-(4-isopropyl-4-methyl-5-oxo-2-imidazolin-2-yl)nicotinic acid]: 18.5 ng/mL.
For the compound `COC(=O)c1nc2ccccc2cc1C(=O)NC(C)(C(N)=O)C(C)C` (centres unmarked) [Methyl 3-[(1-carbamoyl-1,2-dimethylpropyl)carbamoyl]-2-quinolinecarboxylate], the “I50 (50% inhibition concentration)” value is reported as > 5,000 ng/mL.
Consider `CC(C)C1(C)N=C(c2ncccc2C(=O)O)NC1=O` (centres unmarked) [Imazapyr, 2-(4-isopropyl-4-methyl-5-oxo-2-imidazolin-2-yl)nicotinic acid], for which the “I50 (50% inhibition concentration)” value came to 149.0 ng/mL.
For `CCc1cccc(CC)c1N(COC)C(=O)CCl` [Alachlor] the value was > 100,000 ng/mL.

Source of the values: US5342771A, “Functionalized imidazolinone haptens and protein conjugates thereof useful in assays for the detection of imidazolinone herbicides” (American Cyanamid Company, priority 1993, dated 1994).
